ChEMBL document CHEMBL5550161, “Discovery of novel small molecules targeting the USP21/JAK2/STAT3 axis for the treatment of triple-negative breast cancer” (Eur J Med Chem, 2024)
Calls of active or inactive are those of the source. No cut-off for these calls is given here.

Tests used:
MCF7 = assay: Anti-proliferative activity against human MCF7 cells assessed as cell growth inhibition incubated for 72 hrs by MTT assay; format: functional, cell-based; details: MCF7, 72 h
MDA-MB-231 [1] = assay: Anti-proliferative activity against human MDA-MB-231 cells assessed as reduction in EdU-positive cells at 0.2 uM; format: functional, cell-based
HCC1806 [2] = assay: Induction of cell cycle arrest at G2/M phase in human HCC1806 cells at 0.1 to 0.4 uM incubated for 24 hrs; format: functional, cell-based; details: dose 0.1-0.4 µM
MDA-MB-231 [3] = assay: Induction of apoptosis in human MDA-MB-231 cells assessed as necrotic cells at 0.1 uM incubated for 24 hrs by Annexin V-FITC/PI staining based flow cytometry (reference value: 0.07 %); format: functional
MDA-MB-231 [4] = assay: Induction of apoptosis in human MDA-MB-231 cells assessed as necrotic cells at 0.2 uM incubated for 24 hrs by Annexin V-FITC/PI staining based flow cytometry (reference value: 0.07 %); format: functional
MDA-MB-231 [5] = assay: Induction of apoptosis in human MDA-MB-231 cells assessed as viable cells at 0.4 uM incubated for 24 hrs by Annexin V-FITC/PI staining based flow cytometry (reference value: 97.54 %); format: functional; details: read-out: Activity
MDA-MB-231 [6] = assay: Induction of apoptosis in human MDA-MB-231 cells assessed as early apoptotic cells at 0.4 uM incubated for 24 hrs by Annexin V-FITC/PI staining based flow cytometry (reference value: 1.16 %); format: functional
MDA-MB-231 [7] = assay: Induction of apoptosis in human MDA-MB-231 cells assessed as necrotic cells at 0.4 uM incubated for 24 hrs by Annexin V-FITC/PI staining based flow cytometry (reference value: 0.07 %); format: functional
MDA-MB-231 [8] = assay: Induction of apoptosis in human MDA-MB-231 cells assessed as necrotic cells at 0.8 uM incubated for 24 hrs by Annexin V-FITC/PI staining based flow cytometry (reference value: 0.07 %); format: functional
MDA-MB-231 [9] = assay: Induction of apoptosis in human MDA-MB-231 cells assessed as viable cells at 1.6 uM incubated for 24 hrs by Annexin V-FITC/PI staining based flow cytometry (reference value: 97.54 %); format: functional; details: read-out: Activity
HCC1806 [10] = assay: Induction of apoptosis in human HCC1806 cells assessed as early apoptotic cells at 0.1 uM incubated for 24 hrs by Annexin V-FITC/PI staining based flow cytometry (reference value: 0.67 %); format: functional
HCC1806 [11] = assay: Induction of apoptosis in human HCC1806 cells assessed as necrotic cells at 0.1 uM incubated for 24 hrs by Annexin V-FITC/PI staining based flow cytometry (reference value: 0.15 %); format: functional
HCC1806 [12] = assay: Induction of apoptosis in human HCC1806 cells assessed as early apoptotic cells at 0.2 uM incubated for 24 hrs by Annexin V-FITC/PI staining based flow cytometry (reference value: 0.67 %); format: functional
HCC1806 [13] = assay: Induction of apoptosis in human HCC1806 cells assessed as late apoptotic cells at 0.4 uM incubated for 24 hrs by Annexin V-FITC/PI staining based flow cytometry (reference value: 0.23 %); format: functional
HCC1806 [14] = assay: Induction of apoptosis in human HCC1806 cells assessed as early apoptotic cells at 0.8 uM incubated for 24 hrs by Annexin V-FITC/PI staining based flow cytometry (reference value: 0.67 %); format: functional
HCC1806 [15] = assay: Induction of apoptosis in human HCC1806 cells assessed as necrotic cells at 0.8 uM incubated for 24 hrs by Annexin V-FITC/PI staining based flow cytometry (reference value: 0.15 %); format: functional
HCC1806 [16] = assay: Induction of apoptosis in human HCC1806 cells assessed as early apoptotic cells at 1.6 uM incubated for 24 hrs by Annexin V-FITC/PI staining based flow cytometry (reference value: 0.67 %); format: functional
MDA-MB-231 [17] = assay: Induction of apoptosis in human MDA-MB-231 cells assessed as ROS production rate at 0.1 uM incubated for 24 hrs by DCFH-DA staining based flow cytometry (reference value: 0.28 %); format: functional
MDA-MB-231 [18] = assay: Induction of apoptosis in human MDA-MB-231 cells assessed as ROS production rate at 0.4 uM incubated for 24 hrs by DCFH-DA staining based flow cytometry (reference value: 0.28 %); format: functional
HCC1806 [19] = assay: Induction of apoptosis in human HCC1806 cells assessed as ROS production rate at 0.1 uM incubated for 24 hrs by DCFH-DA staining based flow cytometry (reference value: 0.23 %); format: functional
HCC1806 [20] = assay: Induction of apoptosis in human HCC1806 cells assessed as ROS production rate at 0.2 uM incubated for 24 hrs by DCFH-DA staining based flow cytometry (reference value: 0.23 %); format: functional
MDA-MB-231 [21] = assay: Inhibition of cell invasion in human MDA-MB-231 cells; format: functional, cell-based; details: dose 0.05-2 µM
HCC1806 [22] = assay: Inhibition of cell migration in human HCC1806 cells; format: functional, cell-based; details: dose 0.05-2 µM
MDA-MB-231 [23] = assay: Induction of apoptosis in human MDA-MB-231 cells assessed as decrease in STAT3 phosphorylation at Y705 by Western blot analysis; format: functional, cell-based; details: dose 0.1-0.4 µM
MDA-MB-231 [24] = assay: Induction of apoptosis in human MDA-MB-231 cells assessed as decrease in Bcl-2 level by Western blot analysis; format: functional, cell-based; details: dose 0.1-0.4 µM
HCC1806 [25] = assay: Induction of apoptosis in human HCC1806 cells assessed as decrease in JAK2 level by Western blot analysis; format: functional, cell-based; details: dose 0.1-0.4 µM
HCC1806 [26] = assay: Induction of apoptosis in human HCC1806 cells assessed as decrease in STAT3 phosphorylation at Y705 by Western blot analysis; format: functional, cell-based; details: dose 0.1-0.4 µM
HCC1806 [27] = assay: Upregulation of JAK2 mRNA level in human HCC1806 cells at 0.2 uM incubated for 18 to 72 hrs; format: functional, cell-based; details: time 18-72 hrs
[28] = Toxicity in Balb/c nude mouse assessed as behavioural changes at 60 mg/kg, ip bid for 14 days consecutively; format: organism-based; details: in vivo, 336 h, time 14 day
[29] = Half life in Sprague-Dawley rat at 4 mg/kg, ip; format: ADME, organism-based; details: in vivo
[30] = Toxicity in Balb/c nude mouse assessed as histopathological change in heart at 60 mg/kg, ip bid for 14 days consecutively; format: organism-based; details: in vivo, 336 h, time 14 day
[31] = Toxicity in Balb/c nude mouse assessed as histopathological change in kidney at 60 mg/kg, ip bid for 14 days consecutively; format: organism-based; details: in vivo, 336 h, time 14 day
HCC1806 [32] = assay: Antitumor activity against human HCC1806 cells xenografted in Balb/c mouse assessed as reduction in tumor volume at 40 to 60 mg/kg, ip bid measured after 14 days; format: functional, organism-based; details: dose 40-60 mg/kg, time 14.0 day
HCC1806 [33] = assay: Antitumor activity against human HCC1806 cells xenografted in Balb/c mouse at 60 mg/kg, ip bid measured after 14 days relative to control; format: functional; details: HCC1806, 336 h, time 14 day, read-out: TGI
HCC1806 [34] = assay: Antitumor activity against human HCC1806 cells xenografted in Balb/c mouse assessed as decrease in Bcl-2 level at 40 to 60 mg/kg, ip bid measured after 14 days by IHC analysis; format: functional, organism-based; details: dose 40-60 mg/kg, time 14.0 day
HCC1806 [35] = assay: Antitumor activity against human HCC1806 cells xenografted in Balb/c mouse assessed as increase in E-cadherin level at 40 to 60 mg/kg, ip bid measured after 14 days by IHC analysis; format: functional, organism-based; details: dose 40-60 mg/kg, time 14.0 day

In the case of `COc1cc(Nc2cc(F)ccc2C(=O)NCCc2c[nH]c3c(F)ccc(F)c23)cc(OC)c1OC`, the IC50 (MCF7) is reported as 1450 nM, the Activity (MDA-MB-231 [1]) is reported as “Active” and the Activity (HCC1806 [2]) is reported as “Active”. The Activity (MDA-MB-231 [3]) was 0.19%, the Activity (MDA-MB-231 [4]) was 0.19% and the viability at 0.4 µM (MDA-MB-231 [5]) was 95.7%. For the same compound, the Activity (MDA-MB-231 [6]) was 2.31%, the Activity (MDA-MB-231 [7]) was 0.14% and the Activity (MDA-MB-231 [8]) was 0.11%. For the same compound, the viability at 1.6 µM (MDA-MB-231 [9]) was 87.4%, the Activity (HCC1806 [10]) was 0.65% and the Activity (HCC1806 [11]) was 0.11%. It also gave an Activity (HCC1806 [12]) of 1.13%, an Activity (HCC1806 [13]) of 0.76% and an Activity (HCC1806 [14]) of 4.23%. It also gave an Activity (HCC1806 [15]) of 0.29%, an Activity (HCC1806 [16]) of 4.81% and an Activity (MDA-MB-231 [17]) of 0.61%. The Activity (MDA-MB-231 [18]) was 3.17%, the Activity (HCC1806 [19]) was 0.66% and the Activity (HCC1806 [20]) was 2.3%. The inhibition (MDA-MB-231 [21]) was “Active”, the inhibition (HCC1806 [22]) was “Active” and the Activity (MDA-MB-231 [23]) was “Active”. The Activity (MDA-MB-231 [24]) was “Active”, the Activity (HCC1806 [25]) was “Active” and the Activity (HCC1806 [26]) was “Active”. The Activity (HCC1806 [27]) was “Active”, the Activity [28] was “Non-Toxic” and the half-life [29] was 5.57 h. The Activity [30] was “Non-Toxic”, the Activity [31] was “Non-Toxic” and the Activity (HCC1806 [32]) was “Active”. For the same compound, the inhibition in vivo at 60 mg/kg (HCC1806 [33]) was 67.7%, the Activity (HCC1806 [34]) was “Active” and the Activity (HCC1806 [35]) was “Active”.
